Assay results from US20200024278A1, “COMPOSITION COMPRISING ANTIBIOTIC COMPOUND AND AN HETEROCYCLIC COMPOUND AND THEIR USE IN PREVENTING OR TREATING BACTERIAL INFECTIONS” (MUTABILIS, priority 2016, published 2020).

Tests used:
Assay in all cases: MIC, broth microdilution (CLSI), substance alone or ATB combined with compound at 4 or 8 μg/mL
KPN BAA-1898 = assay type: cell-based, K. pneumoniae; conditions: KPN BAA-1898; for MIC ATB combined with Example: Example @8 μg/ml
Summary of the method: (§1)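 Per CLSI-M7-A7, MICs are determined in cation-adjusted Mueller-Hinton broth with a final inoculum of 5·10^5 CFU/mL. Plates incubate 16-20 h at 35° C in air and are read by eye. Fosfomycin assays carry 25 μg/ml glucose-6-phosphate.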

KPN UFR42 = assay type: cell-based, K. pneumoniae; conditions: KPN UFR42; for MIC ATB combined with Example: Example @8 μg/ml; for MIC ATB combined with Example compound: compound @8 μg/ml
Summary of the method: as §1

KPN 6299 = assay type: cell-based, K. pneumoniae; conditions: for MIC ATB combined with Example: Example @8 μg/ml
Summary of the method: as §1

ECO 190317 = assay type: cell-based, E. coli; conditions: ECO 190317; for MIC ATB combined with Example: Example @8 μg/ml
Summary of the method: as §1

ECO UFR39 = assay type: cell-based, E. coli; conditions: ECO UFR39; for MIC ATB combined with Example: Example @8 μg/ml; for MIC ATB combined with Example compound: compound @8 μg/ml
Summary of the method: as §1

ABA UFR160 = assay type: cell-based, A. baumannii; conditions: substance alone
Summary of the method: as §1

ABA 19606 = assay type: cell-based, A. baumannii; conditions: substance alone
Summary of the method: as §1

SPN 49619 = assay type: cell-based, S. pneumoniae; conditions: SPN 49619; for MIC ATB combined with Example: Example @8 μg/ml; for MIC ATB combined with Example compound: compound @8 μg/ml
Summary of the method: as §1

PAE 105250 = assay type: cell-based, P. aeruginosa; conditions: PAE 105250; for MIC ATB combined with Example: Example @8 μg/ml; for MIC ATB combined with Example compound: compound @8 μg/ml
Summary of the method: as §1

PAE UFR90 = assay type: cell-based, P. aeruginosa; conditions: PAE UFR90; for MIC ATB combined with Example: Example @8 μg/ml; for MIC ATB combined with Example compound: compound @8 μg/ml
Summary of the method: as §1

PAE UFR48 = assay type: cell-based, P. aeruginosa; conditions: PAE UFR48; for MIC ATB combined with Example: Example @8 μg/ml; for MIC ATB combined with Example compound: compound @8 μg/ml
Summary of the method: as §1

SAU 29213 = assay type: cell-based, S. aureus; conditions: for MIC ATB combined with Example / MIC ATB combined with Example compound: SAU 29213; for MIC ATB combined with Example: Example @8 μg/ml; for MIC ATB combined with Example compound: compound @8 μg/ml
Summary of the method: as §1

ECL P99 = assay type: cell-based, E. cloacae; conditions: ECL P99; for MIC ATB combined with Example: Example @8 μg/ml
Summary of the method: as §1

- MIC ATB combined with Example (KPN BAA-1898; ATB ATM): <0.031 µg/mL
- MIC ATB combined with Example (KPN BAA-1898; ATB FEP): <0.031 µg/mL
- MIC ATB combined with Example (KPN BAA-1898; ATB FOS): <0.125 µg/mL
- MIC ATB combined with Example (KPN BAA-1898; ATB MEM): <0.031 µg/mL
- MIC ATB combined with Example (KPN BAA-1898; ATB PIP): <0.031 µg/mL
- MIC ATB combined with Example compound (KPN BAA-1898; MIC of CIP, compound @8 μg/ml): <0.031 µg/mL
- MIC (KPN BAA-1898; substance alone): 2 µg/mL
- MIC ATB combined with Example (KPN UFR42; ATB ATM): <0.031 µg/mL
- MIC ATB combined with Example (KPN UFR42; ATB FEP): <0.031 µg/mL
- MIC ATB combined with Example (KPN UFR42; ATB FOS): <0.125 µg/mL
- MIC ATB combined with Example (KPN UFR42; ATB MEM): <0.031 µg/mL
- MIC ATB combined with Example (KPN UFR42; ATB PIP): <0.031 µg/mL
- MIC ATB combined with Example compound (KPN UFR42; MIC of CIP): <0.031 µg/mL
- MIC ATB combined with Example compound (KPN UFR42; MIC of CPO): <0.031 µg/mL
- MIC (KPN UFR42; substance alone): 4 µg/mL
- MIC ATB combined with Example (KPN 6299; ATB ATM): <0.031 µg/mL
- MIC ATB combined with Example (KPN 6299; ATB FEP): <0.031 µg/mL
- MIC ATB combined with Example (KPN 6299; ATB FOS): <0.125 µg/mL
- MIC ATB combined with Example (KPN 6299; ATB MEM): <0.031 µg/mL
- MIC ATB combined with Example (KPN 6299; ATB PIP): <0.031 µg/mL
- MIC ATB combined with Example compound (KPN 6299; MIC of CIP, compound @8 μg/ml): <0.031 µg/mL
- MIC ATB combined with Example (ECO 190317; ATB ATM): <0.031 µg/mL
- MIC ATB combined with Example (ECO 190317; ATB FEP): <0.031 µg/mL
- MIC ATB combined with Example (ECO 190317; ATB FOS): <0.125 µg/mL
- MIC ATB combined with Example (ECO 190317; ATB MEM): <0.031 µg/mL
- MIC ATB combined with Example (ECO 190317; ATB PIP): <0.031 µg/mL
- MIC ATB combined with Example compound (ECO 190317; MIC of CIP, compound @8 μg/ml): <0.031 µg/mL
- MIC (ECO 190317; substance alone): 1 µg/mL
- MIC ATB combined with Example (ECO UFR39; ATB ATM): <0.031 µg/mL
- MIC ATB combined with Example (ECO UFR39; ATB FEP): <0.031 µg/mL
- MIC ATB combined with Example (ECO UFR39; ATB FOS): <0.125 µg/mL
- MIC ATB combined with Example (ECO UFR39; ATB MEM): <0.031 µg/mL
- MIC ATB combined with Example (ECO UFR39; ATB PIP): <0.031 µg/mL
- MIC ATB combined with Example compound (ECO UFR39; MIC of CIP): <0.031 µg/mL
- MIC ATB combined with Example compound (ECO UFR39; MIC of CPO): <0.031 µg/mL
- MIC (ECO UFR39; substance alone): 1 µg/mL
- MIC (ABA UFR160): >32 µg/mL
- MIC (ABA 19606): 32 µg/mL
- MIC ATB combined with Example (SPN 49619; ATB ATM): >32 µg/mL
- MIC ATB combined with Example (SPN 49619; ATB FEP): <=0.031 μg/mL
- MIC ATB combined with Example (SPN 49619; ATB FOS): 8 µg/mL
- MIC ATB combined with Example (SPN 49619; ATB MEM): <=0.031 μg/mL
- MIC ATB combined with Example (SPN 49619; ATB PIP): 0.25 µg/mL
- MIC ATB combined with Example compound (SPN 49619; MIC of CIP): 0.063 µg/mL
- MIC ATB combined with Example compound (SPN 49619; MIC of CLI): <0.0010 µg/mL
- MIC ATB combined with Example compound (SPN 49619; MIC of CPO): <=0.031 μg/mL
- MIC ATB combined with Example compound (SPN 49619; MIC of DAP): 0.031 µg/mL
- MIC ATB combined with Example compound (SPN 49619; MIC of ERY): <0.0020 µg/mL
- MIC ATB combined with Example compound (SPN 49619; MIC of LZD): 0.25 µg/mL
- MIC ATB combined with Example compound (SPN 49619; MIC of RIF): 0.00049 µg/mL
- MIC ATB combined with Example compound (SPN 49619; MIC of SYN): 0.125 µg/mL
- MIC ATB combined with Example compound (SPN 49619; MIC of VAN): 0.016 µg/mL
- MIC (SPN 49619; substance alone): 8 µg/mL
- MIC ATB combined with Example (PAE 105250; ATB ATM): 8 µg/mL
- MIC ATB combined with Example (PAE 105250; ATB FEP): 2 µg/mL
- MIC ATB combined with Example (PAE 105250; ATB FOS): >128 µg/mL
- MIC ATB combined with Example (PAE 105250; ATB MEM): 1 µg/mL
- MIC ATB combined with Example (PAE 105250; ATB PIP): 32 µg/mL
- MIC ATB combined with Example compound (PAE 105250; MIC of CIP): 0.125 µg/mL
- MIC ATB combined with Example compound (PAE 105250; MIC of CPO): 8 µg/mL
- MIC (PAE 105250; substance alone): >32 µg/mL
- MIC ATB combined with Example (PAE UFR90; ATB ATM): 16 µg/mL
- MIC ATB combined with Example (PAE UFR90; ATB FEP): 4 µg/mL
- MIC ATB combined with Example (PAE UFR90; ATB FOS): 8 µg/mL
- MIC ATB combined with Example (PAE UFR90; ATB MEM): 1 µg/mL
- MIC ATB combined with Example (PAE UFR90; ATB PIP): >32 µg/mL
- MIC ATB combined with Example compound (PAE UFR90; MIC of CIP): 1 µg/mL
- MIC ATB combined with Example compound (PAE UFR90; MIC of CPO): 8 µg/mL
- MIC (PAE UFR90; substance alone): >32 µg/mL
- MIC ATB combined with Example (PAE UFR48; ATB ATM): 8 µg/mL
- MIC ATB combined with Example (PAE UFR48; ATB FEP): 16 µg/mL
- MIC ATB combined with Example (PAE UFR48; ATB FOS): 16 µg/mL
- MIC ATB combined with Example (PAE UFR48; ATB MEM): 0.5 µg/mL
- MIC ATB combined with Example (PAE UFR48; ATB PIP): 16 µg/mL
- MIC ATB combined with Example compound (PAE UFR48; MIC of CIP): 4 µg/mL
- MIC ATB combined with Example compound (PAE UFR48; MIC of CPO): >32 µg/mL
- MIC (PAE UFR48; substance alone): >32 µg/mL
- MIC ATB combined with Example (SAU 29213; ATB ATM): <0.031 µg/mL
- MIC ATB combined with Example (SAU 29213; ATB FEP): <0.031 µg/mL
- MIC ATB combined with Example (SAU 29213; ATB FOS): <0.125 µg/mL
- MIC ATB combined with Example (SAU 29213; ATB MEM): <0.031 µg/mL
- MIC ATB combined with Example (SAU 29213; ATB PIP): <0.031 µg/mL
- MIC ATB combined with Example compound (SAU 29213; MIC of CIP): <0.031 µg/mL
- MIC ATB combined with Example compound (SAU 29213; MIC of CLI): <0.0010 µg/mL
- MIC ATB combined with Example compound (SAU 29213; MIC of CPO): <0.031 µg/mL
- MIC ATB combined with Example compound (SAU 29213; MIC of DAP): <0.0020 µg/mL
- MIC ATB combined with Example compound (SAU 29213; MIC of ERY): <0.0020 µg/mL
- MIC ATB combined with Example compound (SAU 29213; MIC of LZD): <0.0078 µg/mL
- MIC ATB combined with Example compound (SAU 29213; MIC of RIF): <0.00012 µg/mL
- MIC ATB combined with Example compound (SAU 29213; MIC of SYN): <0.0020 µg/mL
- MIC ATB combined with Example compound (SAU 29213; MIC of VAN): <0.0039 µg/mL
- MIC (SAU 29213; substance alone, SAU 29213 (MSSA 29213)): 8 µg/mL
- MIC ATB combined with Example (ECL P99; ATB ATM): <0.031 µg/mL
- MIC ATB combined with Example (ECL P99; ATB FEP): <0.031 µg/mL
- MIC ATB combined with Example (ECL P99; ATB FOS): <0.125 µg/mL
- MIC ATB combined with Example (ECL P99; ATB MEM): <0.031 µg/mL
- MIC ATB combined with Example (ECL P99; ATB PIP): <0.031 µg/mL
- MIC ATB combined with Example compound (ECL P99; MIC of CIP, compound @8 μg/ml): <0.031 µg/mL
- MIC (ECL P99; substance alone): 1 µg/mL
Structure (SMILES): O=C1N2CC(n3ccnn3)=CC(C2)N1OS(=O)(=O)[O-].[Na+] (stereo not drawn) [Example 12, sodium [7-oxo-3-(triazol-1-yl)-1,6-diazabicyclo[3.2.1]oct-3-en-6-yl] sulfate]
